Values of other authors, collected in patent US20250120959A1, “NEW FORMULATIONS OF PITOLISANT AND METHODS OF USE” (Bioprojet Pharma, priority 2023, published 2025).
Where a name gives a salt, the structure may show the parent alone.

- pKa: approximately 10.5
Structure (SMILES): Clc1ccc(CCCOCCCN2CCCCC2)cc1 [Formula (Ia), 1-[3-[3-(4-chlorophenyl)propoxy]propyl]-piperidine monohydrochloride]
